The record followed here is US10669269B2, “Substituted N-(1H-indazol-4-yl)imidazo[1,2-a]pyridine-3-carboxamide compounds as type III receptor tyrosine kinase inhibitors” (ARRAY BIOPHARMA INC., priority 2010, dated 2020).

Structures can show the parent of a compound that is named as a salt.

As a reminder, the IC50 is the concentration needed to halve the response being measured.

One experiment concerns the target T1, cFMS (Homo sapiens, UniProt P07333).
T1 construct: THP-1 cells (human acute monocytic leukemia cell line) were serum-starved for 4 hours; endogenous in cells; host or cells: THP-1 cells (human acute monocytic leukemia cell line)
Kind of experiment: cFMS Cell-Based Assay (Example C). Particulars: averaged IC50; phospho-cFMS in THP-1 cells stimulated with 250 ng/mL recombinant human MCSF; read-out: cFMS Cell ELISA IC50. The method, then:
The ability of compounds of Formula I to inhibit cFMS activation in cells was determined by the following assay. THP-1 cells (human acute monocytic leukemia cell line) were serum-starved for 4 hours prior to treatment with compounds of Formula I for 1 hour. The concentration of compounds of Formula I was varied over a 9-point, 3-fold dilution series with 5,000 nM typically being the highest dose. Cell culture and treatment were carried out in a humidified 37° C., 5% CO2 incubator. Treated cells were stimulated with 250 ng/mL recombinant human MCSF for 1 minute to induce activation of cFMS. Cells were lysed in a manner which preserves phosphoproteins, and the lysate was analyzed by ELISA (R&D Systems, Human Phospho-M-CSF R DuoSet IC DYC3268), in which total cFMS protein in the lysate is captured and phosphotyrosine residues of cFMS are detected. A standard curve, made using purified phospho-M-CSF R protein, was used to quantify phospho-c-FMS in compound-treated wells. A standard 4-parameter logistic model was fit to the inhibitor dose response curves, with the IC50 being defined as the concentration of inhibitor giving 50 percent of control (POC).
In general terms: In an ELISA, binding on a coated surface is turned into a signal by an enzyme label.

The next experiment has as its target T2, c-KIT (Homo sapiens, UniProt P10721).
T2 construct: M-07e cells (human acute megakaryoblastic leukemia cell line) were serum-starved for 4 hours; endogenous in cells; host or cells: M-07e cells (human acute megakaryoblastic leukemia cell line)
Put plainly: c-KIT Cell-Based Assay (Example D). Particulars: averaged IC50; phospho-c-KIT in M-07e cells stimulated with 150 ng/ml recombinant human SCF; read-out: cKIT Cell ELISA IC50. How it is done:
The ability of compounds of Formula I to inhibit c-KIT activation in cells was determined by the following assay. M-07e cells (human acute megakaryoblastic leukemia cell line) were serum-starved for 4 hours prior to treatment with compounds of Formula I for 1 hour. The concentration of compounds of Formula I was varied over a 9-point, 3-fold dilution series with 5,000 nM typically being the highest dose. Cell culture and treatment were carried out in a humidified 37° C., 5% CO2 incubator. Treated cells were stimulated with 150 ng/ml recombinant human SCF for 4 minutes to induce activation of c-KIT. Cells were lysed in a manner which preserves phosphoproteins, and the lysate was analyzed by ELISA (R&D Systems, Human Phospho-SCF R DuoSet IC DYC3527), in which total c-KIT protein in the lysate is captured and phosphotyrosine residues of c-Kit are detected. A standard curve, made using purified phospho-SCF R protein, was used to quantify phospho-c-KIT in compound-treated wells. A standard 4-parameter logistic model was fit to the inhibitor dose response curves, with the IC50 being defined as the concentration of inhibitor giving 50 percent of control (POC).

For a further experiment, the target named is T3, PDGFR beta (Homo sapiens, UniProt P09619).
T3 construct: endogenous in cells; host or cells: HS27 human fibroblast cell line
Kind of experiment: Phospho PDGFR LICOR Cell Assay (Example B). It counts as cell-based. Particulars: averaged IC50; PDGFR beta phosphorylation in HS27 human fibroblast cell line, PDGF-BB stimulation 10 minutes, normalized to total ERK. How it is done: Compounds were screened for inhibition of PDGFR beta phosphorylation in the HS27 human fibroblast cell line. Cells were seeded into a 96 well tissue culture plate, then incubated overnight in a 37° C./5% CO2 incubator. The following day, cells were treated for one hour with test compound dilutions. After stimulation with PDGF-BB ligand for 10 minutes, cells were washed with PBS and fixed in 3.7% formaldehyde in PBS for 10 minutes. This was followed by washing in PBS/0.2% Triton X-100 and permeabilizing in 100% MeOH for 10 minutes. Cells were incubated in blocking buffer for 1 hour. Antibodies to phosphorylated PDGFRβ and total ERK were added to the cells and incubated for 3 hours. After washing with PBS/0.2% Triton X-100, the cells were incubated with fluorescently-labeled secondary antibodies for an additional hour. Cells were then washed with PBS and analyzed for fluorescence at both wavelengths using the Odyssey Infrared Imaging System (LI-COR Biosciences). Phosphorylated PDGFR signal was normalized to total ERK signal. A standard 4-parameter logistic model was fit to the inhibitor dose response curves, with the IC50 being defined as the concentration of inhibitor giving 50 percent of control (POC).

T1 sequence (P07333 20-972): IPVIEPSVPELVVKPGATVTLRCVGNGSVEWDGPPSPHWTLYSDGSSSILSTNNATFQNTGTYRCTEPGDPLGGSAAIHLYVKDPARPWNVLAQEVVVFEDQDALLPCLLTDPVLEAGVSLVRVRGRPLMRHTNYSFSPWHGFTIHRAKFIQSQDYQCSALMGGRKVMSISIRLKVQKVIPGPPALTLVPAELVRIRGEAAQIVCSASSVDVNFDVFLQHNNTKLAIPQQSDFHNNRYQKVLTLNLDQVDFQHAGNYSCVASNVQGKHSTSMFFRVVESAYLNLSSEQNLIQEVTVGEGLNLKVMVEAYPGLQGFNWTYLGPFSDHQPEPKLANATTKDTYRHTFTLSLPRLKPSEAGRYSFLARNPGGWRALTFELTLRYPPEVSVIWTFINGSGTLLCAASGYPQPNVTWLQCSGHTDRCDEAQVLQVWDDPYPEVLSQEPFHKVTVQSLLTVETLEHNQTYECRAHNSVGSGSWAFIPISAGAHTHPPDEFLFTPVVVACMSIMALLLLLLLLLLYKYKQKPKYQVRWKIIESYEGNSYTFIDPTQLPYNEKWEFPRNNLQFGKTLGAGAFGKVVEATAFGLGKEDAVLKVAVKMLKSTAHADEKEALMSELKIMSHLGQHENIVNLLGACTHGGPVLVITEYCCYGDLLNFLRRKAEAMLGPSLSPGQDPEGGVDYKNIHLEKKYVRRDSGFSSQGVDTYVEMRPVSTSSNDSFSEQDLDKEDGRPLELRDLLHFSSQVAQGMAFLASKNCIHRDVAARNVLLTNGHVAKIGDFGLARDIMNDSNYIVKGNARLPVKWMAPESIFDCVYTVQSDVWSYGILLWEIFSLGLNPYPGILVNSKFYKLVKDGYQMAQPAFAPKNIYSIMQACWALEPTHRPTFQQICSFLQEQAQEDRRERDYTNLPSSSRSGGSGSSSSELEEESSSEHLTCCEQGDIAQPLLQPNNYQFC
T2 sequence (P10721 26-976): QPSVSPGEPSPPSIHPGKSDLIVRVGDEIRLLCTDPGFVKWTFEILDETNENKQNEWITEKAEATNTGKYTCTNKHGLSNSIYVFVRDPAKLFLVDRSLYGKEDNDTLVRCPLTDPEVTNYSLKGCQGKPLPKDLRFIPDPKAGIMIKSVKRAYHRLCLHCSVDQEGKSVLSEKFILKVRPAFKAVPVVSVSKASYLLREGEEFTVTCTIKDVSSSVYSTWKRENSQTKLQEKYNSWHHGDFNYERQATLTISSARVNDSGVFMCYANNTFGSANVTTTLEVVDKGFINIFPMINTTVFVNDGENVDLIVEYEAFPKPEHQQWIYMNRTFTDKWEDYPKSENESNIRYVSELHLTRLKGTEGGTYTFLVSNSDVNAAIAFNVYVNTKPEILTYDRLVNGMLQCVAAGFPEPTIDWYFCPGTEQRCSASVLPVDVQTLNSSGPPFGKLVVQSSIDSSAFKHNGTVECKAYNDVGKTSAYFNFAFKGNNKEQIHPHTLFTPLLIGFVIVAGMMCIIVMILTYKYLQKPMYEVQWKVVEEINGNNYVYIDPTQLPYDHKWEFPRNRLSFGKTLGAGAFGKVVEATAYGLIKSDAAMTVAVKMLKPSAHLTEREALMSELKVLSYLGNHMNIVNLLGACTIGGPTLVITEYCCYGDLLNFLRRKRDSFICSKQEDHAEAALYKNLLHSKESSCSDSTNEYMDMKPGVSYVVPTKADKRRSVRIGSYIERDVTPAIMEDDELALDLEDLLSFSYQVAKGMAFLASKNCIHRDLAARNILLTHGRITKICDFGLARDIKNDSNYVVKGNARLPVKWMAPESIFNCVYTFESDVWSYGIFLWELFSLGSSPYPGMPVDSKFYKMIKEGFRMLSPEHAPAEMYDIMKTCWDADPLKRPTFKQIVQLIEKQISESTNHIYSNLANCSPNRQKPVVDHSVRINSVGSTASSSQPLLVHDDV
T3 sequence (P09619 33-1106): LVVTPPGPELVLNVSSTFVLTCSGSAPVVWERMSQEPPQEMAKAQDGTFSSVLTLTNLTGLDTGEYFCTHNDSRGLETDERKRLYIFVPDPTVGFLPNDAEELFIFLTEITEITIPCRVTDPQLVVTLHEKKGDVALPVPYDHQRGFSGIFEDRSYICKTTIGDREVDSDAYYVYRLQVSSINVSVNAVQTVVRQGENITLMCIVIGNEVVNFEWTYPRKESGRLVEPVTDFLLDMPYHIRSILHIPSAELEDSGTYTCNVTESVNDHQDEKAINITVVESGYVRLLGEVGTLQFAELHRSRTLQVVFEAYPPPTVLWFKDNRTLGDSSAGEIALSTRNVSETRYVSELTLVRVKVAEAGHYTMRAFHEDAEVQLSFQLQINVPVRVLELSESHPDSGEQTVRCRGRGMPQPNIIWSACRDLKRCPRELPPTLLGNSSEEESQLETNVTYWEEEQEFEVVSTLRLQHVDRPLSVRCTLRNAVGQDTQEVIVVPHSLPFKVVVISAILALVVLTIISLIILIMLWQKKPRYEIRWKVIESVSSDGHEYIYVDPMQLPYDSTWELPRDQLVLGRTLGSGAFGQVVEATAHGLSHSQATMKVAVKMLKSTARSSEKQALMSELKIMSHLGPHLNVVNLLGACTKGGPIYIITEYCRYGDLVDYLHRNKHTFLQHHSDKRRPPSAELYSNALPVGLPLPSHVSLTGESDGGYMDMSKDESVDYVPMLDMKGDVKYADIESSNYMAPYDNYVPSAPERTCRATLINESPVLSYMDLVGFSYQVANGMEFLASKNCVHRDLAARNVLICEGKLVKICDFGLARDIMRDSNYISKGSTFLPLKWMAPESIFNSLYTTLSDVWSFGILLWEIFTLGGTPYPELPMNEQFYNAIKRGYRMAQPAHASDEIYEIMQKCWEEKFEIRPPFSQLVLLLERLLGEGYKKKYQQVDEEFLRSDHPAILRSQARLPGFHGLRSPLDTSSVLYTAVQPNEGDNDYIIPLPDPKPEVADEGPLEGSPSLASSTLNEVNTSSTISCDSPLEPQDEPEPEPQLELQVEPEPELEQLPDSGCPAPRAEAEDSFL

With `COC(=O)c1cccc(Cn2ncc3c(NC(=O)c4cnc5cc(OCCN6CCN(C)CC6)ccn45)cccc32)c1` [Example 96, Methyl 3-((4-(7-(2-(4-methylpiperazin-1-yl)ethoxy)imidazo[1,2-a]pyridine-3-carboxamido)-1H-indazol-1-yl)methyl)benzoate dihydrochloride], the results for the IC50 on cFMS, on c-KIT and on PDGFR beta were 115 nM, 3.8 nM and 14.6 nM, respectively.
For `CN1CCN(CCOc2ccn3c(C(=O)Nc4cccc5c4cnn5Cc4cccc(C(=O)N(C)C)c4)cnc3c2)CC1` [Example 97, N-(1-(3-(dimethylcarbamoyl)benzyl)-1H-indazol-4-yl)-7-(2-(4-methylpiperazin-1-yl)ethoxy)imidazo[1,2-a]pyridine-3-carboxamide dihydrochloride] the same measures were 10.4 nM, 25.7 nM and 9.6 nM.
Regarding `Cc1nn(Cc2csc(C(C)C)n2)c2cccc(NC(=O)c3cnc4cc(OCCN5CC6(CN(C)C6)C5)ccn34)c12` [Example 13, N-(1-((2-isopropylthiazol-4-yl)methyl)-3-methyl-1H-indazol-4-yl)-7-(2-(6-methyl-2,6-diazaspiro[3.3]heptan-2-yl)ethoxy)imidazo[1,2-a]pyridine-3-carboxamide], the IC50 at cFMS was 12.9 nM; at c-KIT, 76.3 nM; at PDGFR beta it was 11.3 nM.
Turning to `O=C(Nc1cccc2c1cnn2Cc1ccccn1)c1cnc2ccccn12` [Example 129, N-(1-(pyridin-2-ylmethyl)-1H-indazol-4-yl)imidazo[1,2-a]pyridine-3-carboxamide], the values for the IC50 at cFMS, at c-KIT and against PDGFR beta were 80 nM, 124 nM and 117 nM, respectively.
With `Cc1cc(Cn2ncc3c(NC(=O)c4cnc5cc(OCCN6CCN(C)CC6)ccn45)cccc32)nn1C(C)C` [Example 139, N-(1-((1-isopropyl-5-methyl-1H-pyrazol-3-yl)methyl)-1H-indazol-4-yl)-7-(2-(4-methylpiperazin-1-yl)ethoxy)imidazo[1,2-a]pyridine-3-carboxamide], the IC50 at cFMS is 10.6 nM; on c-KIT, 7.9 nM; against PDGFR beta, 1.3 nM.
As to `Cc1ccc(Cn2nc(C)c3c(NC(=O)c4cnc5ccccn45)cccc32)cn1` [Example 81, N-(3-methyl-1-((6-methylpyridin-3-yl)methyl)-1H-indazol-4-yl)imidazo[1,2-a]pyridine-3-carboxamide], the values for the IC50 at cFMS, at c-KIT and against PDGFR beta were 136 nM, 4440 nM and 6440 nM, respectively.
As for `COCCOc1ccn2c(C(=O)Nc3cccc4c3cnn4CC3CCCCC3)cnc2c1` [Example 115, N-(1-(cyclohexylmethyl)-1H-indazol-4-yl)-7-(2-methoxyethoxy)imidazo[1,2-a]pyridine-3-carboxamide], the IC50 at cFMS is 24.1 nM; on c-KIT it was 13.4 nM; against PDGFR beta, 6.8 nM.
In the case of `O=C(Nc1cccc2c1cnn2Cc1ccccc1)c1cnc2cc(OCCN3CCOCC3)ccn12` [Example 90, N-(1-benzyl-1H-indazol-4-yl)-7-(2-morpholinoethoxy)imidazo[1,2-a]pyridine-3-carboxamide], the IC50 on cFMS was 9.8 nM; at c-KIT it was 25.8 nM; on PDGFR beta, 5 nM.
`N#Cc1ccc2ncc(C(=O)Nc3cccc4c3cnn4Cc3ccccc3)n2c1` [Example 154, N-(1-benzyl-1H-indazol-4-yl)-6-cyanoimidazo[1,2-a]pyridine-3-carboxamide]: the IC50 at cFMS was found to be 143 nM; on c-KIT, 150 nM; against PDGFR beta it was 186 nM.
As for `COCCOc1ccn2c(C(=O)Nc3cccc4c3cnn4CCc3ccccc3)cnc2c1` [Example 151, 7-(2-methoxyethoxy)-N-(1-phenethyl-1H-indazol-4-yl)imidazo[1,2-a]pyridine-3-carboxamide], the IC50 on cFMS stood at 44.8 nM; on c-KIT it was 37.3 nM; against PDGFR beta it was 9 nM.
On the same counts, the results for `COCCOc1ccn2c(C(=O)Nc3cccc4c3cnn4CC3CCCN(C(=O)OC(C)(C)C)C3)cnc2c1` (stereo not drawn) [Example 116, tert-butyl 3-((4-(7-(2-methoxyethoxy)imidazo[1,2-a]pyridine-3-carboxamido)-1H-indazol-1-yl)methyl)piperidine-1-carboxylate] are 185 nM, 192 nM and 54 nM.
`O=C(Nc1cccc2c1cnn2Cc1ccccc1)c1cnc2ccc(C(O)CO)cn12` (stereo not drawn) [Example 158, N-(1-benzyl-1H-indazol-4-yl)-6-(1,2-dihydroxyethyl)imidazo[1,2-a]pyridine-3-carboxamide]: the results for the IC50 on cFMS, on c-KIT and against PDGFR beta were 535 nM, 2100 nM and 2400 nM, respectively.
Turning to `O=C(Nc1cccc2c1cnn2Cc1ccccc1)c1cnc2cc(-c3cn[nH]c3)ccn12` [Example 145, N-(1-benzyl-1H-indazol-4-yl)-7-(1H-pyrazol-4-yl)imidazo[1,2-a]pyridine-3-carboxamide], the results for the IC50 at cFMS, at c-KIT and on PDGFR beta were 20.5 nM, 55.9 nM and 13 nM, respectively.
Regarding `Cc1nn(Cc2cc(C)n(C(C)C)n2)c2cccc(NC(=O)c3cnc4cc(OCCN5C[C@@H](C)N(C)[C@@H](C)C5)ccn34)c12` [Example 9, N-(1-((1-isopropyl-5-methyl-1H-pyrazol-3-yl)methyl)-3-methyl-1H-indazol-4-yl)-7-(2-((3S,5R)-3,4,5-trimethylpiperazin-1-yl)ethoxy)imidazo[1,2-a]pyridine-3-carboxamide], the values for the IC50 at cFMS, on c-KIT and against PDGFR beta were 21.2 nM, 143 nM and 166 nM, respectively.
On the same counts, the results for `O=C(Nc1cccc2c1cnn2Cc1ccccc1)c1cnc2ccccn12` [Example 126, N-(1-benzyl-1H-indazol-4-yl)imidazo[1,2-a]pyridine-3-carboxamide] are 27.4 nM, 22.2 nM and 34.5 nM.
As for `CCOc1cccc(Cn2ncc3c(NC(=O)c4cnc5cc(OCCN6CCN(C)CC6)ccn45)cccc32)n1` [Example 105, N-(1-((6-ethoxypyridin-2-yl)methyl)-1H-indazol-4-yl)-7-(2-(4-methylpiperazin-1-yl)ethoxy)imidazo[1,2-a]pyridine-3-carboxamide], the values for the IC50 on cFMS, on c-KIT and against PDGFR beta were 3.3 nM, 2.7 nM and 2.6 nM, respectively.
Regarding `COCCOc1ccn2c(C(=O)Nc3c(Cl)ccc4c3cnn4Cc3ccccc3)cnc2c1` [Example 137, N-(1-benzyl-5-chloro-1H-indazol-4-yl)-7-(2-methoxyethoxy)imidazo[1,2-a]pyridine-3-carboxamide], the IC50 on cFMS stood at 3.1 nM; on c-KIT, 3.1 nM; at PDGFR beta, 2 nM.
Take `NC(=O)c1ccc2ncc(C(=O)Nc3cccc4c3cnn4Cc3ccccc3)n2c1` [Example 160, N3-(1-benzyl-1H-indazol-4-yl)imidazo[1,2-a]pyridine-3,6-dicarboxamide]: the IC50 was found to be 132 nM on cFMS, 868 nM at c-KIT and 714 nM against PDGFR beta.
With `N#Cc1ccn2c(C(=O)Nc3cccc4c3cnn4Cc3ccccc3)cnc2c1` [Example 152, N-(1-benzyl-1H-indazol-4-yl)-7-cyanoimidazo[1,2-a]pyridine-3-carboxamide], the IC50 at cFMS amounted to 117 nM; at c-KIT it was 165 nM; on PDGFR beta, 296 nM.
